Results on 3 substances are retold here after US20130273096A1, “Therapeutic Sulfated Polysaccharides, Compositions Thereof, and Methods for Treating Patients” (priority 2011, published 2013).

For assay [1], the system named is human coronary artery endothelial cells (HCAEC). The experiment in a line: LDL permeability of HCAEC monolayers. Particulars: 12.5 to 12004/mL, 24 hrs to 5 day, FIGS. 6 and 7. It is filed as cell-based. The procedure: To test whether any of the RS isoforms could inhibit apoptosisn in human coronary artery endothelial cells (HCAEC), the HCAEC (human coronary artery endothelial cell) monolayers were incubated with each of two isoforms, RS#1 or RS#2, at concentrations ranging from 12.5 to 12004/mL for a period of time ranging from 24 hrs to 5 day, before the permeability of LDL (low density lipoprotein) was measured. In addition, some monolayers were induced to undergo apoptosis with TNF-α/CHX in the presence or absence of RS#1 or RS#2 and the permeability of LDL was measured. As shown in the figure, Dil means 11′-dioctadecyl-3,3-3′,3′-tetramethylindo-carbocyanide perchlorate. […] When the monolayers were induced to undergo apoptosis the permeability increased by ˜2-3-fold.

The test system of assay [2] is HCAEC monolayers. The experiment in a line: Water flux through HCAEC monolayers. Particulars: FIG. 8. It counts as cell-based, human.
In assay [3] the test system is HCAEC monolayers. The experiment in a line: Heparan sulfate immunostaining of HCAEC monolayers. It is filed as cell-based, human. Conditions: 1004/mL for 24 hrs; confocal microscope; FIG. 9. The procedure: HCAEC monolayers were incubated with RS#1 at 1004/mL for 24 hrs and immunostaining for heparan sulfate was performed. The monolayers were then imaged using a laser scanning confocal microscope. One control and one RS#1-treated monolayers were stained and four representative fields from each case were imaged. In control monolayers, heparan sulfate immunostaining seemed to be concentrated on the cell-cell junction area (FIG. 9A).

The subject of another assay is endothelial cells (EC). As to the kind of experiment: Disaccharide analysis of heparan sulfate synthesized by endothelial cells. It is filed as cell-based. Conditions: EC exposed to RS vs control cell fraction; FIG. 4. The procedure: Purified heparin sulfate (HS) from the endothelial cells (EC) exposed or not exposed to RS #2 were incubated with a mixture of heparin lyases (heparinase I and II, 2.5 mlU each, available from Sigma) and the disaccharides produced by the enzymatic action were separated on a Phenosphere SAX column (Phenomenex, Torrance, Calif., USA) 150×4.6 mm using a NaCl gradient of 0-1 M in 30 min with a flux of 1 mL/min. Individual fractions (0.5 mL) were collected and counted using a micro-beta counter. […] The abbreviations used in the figure are: GlcNS(6S)=2-deoxy-6-O-sulfo-2-(sulfoamino)-α-D-glucopyranoside; GlcA=β-D-glucopyranuronosyl; GlcNS(3S,6S)=2-deoxy-3,6-di-O-sulfo-2-(sulfoamino)-α-D-glucopyranosyl; IdoA(2S)=2-O-sulfo-α-L-idopyranuronosyl; and, GlcNS(6S)OMe=methyl-O-2-deoxy-6-O-sulfo-2-(sulfoamino)-α-D-glucopyranoside.
As for the heparin stimulus, the HS produced by these cells have more of heparin sequences [-4) IdoA2S(1-4)GlcNS,6S] (heparin's basic structure). […] Counting from the left, the RS-induced heparans are chains of disaccharide pairs like sugar groups number 4-5 hooked together. Additionally, the major fraction of stimulated heparan sulfate produced are tri-sulfated discaccharides (Iodo2S-GlcNS,6S), typical of the major sequence in heparin.

The next assay relates to endothelial cells. As to the kind of experiment: Heparan sulfate (HS) stimulus experiment. Conditions: vs control; FIG. 10. It counts as cell-based. The procedure: A heparin sulfate (HS) stimulus experiment was performed as known in the art, using the four RS isoforms described herein. […] While the results shown here are limited to the RS isoforms studied, the type of polysaccharides to which this applies can be expanded to other classes of compounds that likely have similar effects, such as PUFAs, non-sulfated PS, other polymers, and the like. These RS (and other similar acting substances found in nature) can be used for in vivo HS and GAG production instead of administering HS or other GAGS for therapeutic effect.

For the substance “L-arginine (L-Arg) salt of rhamnan sulfate [RS #1]”, the “reduction of LDL permeability of control monolayers” value in assay [1] was determined as 5 fold. The “decrease of water flux through HCAEC monolayers” value in the assay on HCAEC monolayers [2] is around 50%. In addition, in the assay with HCAEC monolayers [3], the “coverage of heparan sulfate on HCAEC monolayers (immunostaining)” value is “increased the coverage”.
For rhamnan sulfate [RS #2], the “heparin sequences composed of the tri-sulfated disaccharide (ΔU2S-GlcNS,6S) in HS synthesized by EC” value with endothelial cells (EC) was “significant increase”. In assay [1], the “reduction of LDL permeability of control monolayers” value turned out to be 5 fold. Also, the “decrease of water flux through HCAEC monolayers” value with HCAEC monolayers [2] is given as around 20%.
For the substance rhamnan sulfate [RS #3], in the assay with endothelial cells, the “cellular HS content (cellular fraction of heparans)” value is “no change”.
